Literature values as cited in patent US20050129759A1, “Sustained release compositions and controlled delivery method” (priority 2003, published 2005).

Conditions: not entrapped; stated as typical behaviour

NC(N)=O.OO [urea peroxide]
stability of free active agent: very unstable, shock sensitive, and deteriorates very quickly on contact with air humidity
